Target: T1, MCL-1 (Homo sapiens, UniProt Q07820)
T1 construct: purchased BPS Bioscience
Test: Cell Free Mcl-1:Bim affinity assay (Mcl-1 Bim), fluorescence polarization competition
Format: binding
Settings: 15 nM MCL-1, 5 nM FITC-Bim peptide tracer, 1 hour at room temperature; Ki calculated from IC50 by Nikolovska-Coleska's equation; read-out: BIM_Ki
Procedure: The binding affinity of each compounds was measured via fluorescence polarization competition assay, in which the compound competes the same binding site with the ligand, and thus lead to dose-dependent anisotropy reduction. The tracer ligand utilized was a fluorescein isothiocyanate labelled peptide (FITC-[…]) derived from Bim (GenScript).
The assay was carried out in black half-area 96-well NBS plate (Corning), containing 15 nM of MCL-1 (BPS Bioscience), 5 nM of FITC-Bim and 3-fold series diluted test compounds in a total volume of 50 uL of assay buffer (20 mM HEPES, 50 mM NaCl, 0.002% Tween 20 1 mM TCEP and 1% DMSO). The reaction plate was incubated for 1 hour at room temperature. The change of anisotropy is measured by Envision multimode plate reader (PerkinElmer) at emission wavelength 535 nm. Fluorescence polarization was calculated in mP unit and the percentage inhibition was calc. by % inhibition=100×(mPDMSO−mP)/(mPDMSO−mPPC), in which mPDMSO is the DMSO control, and mPPC is the positive control. IC50 values were determined from a 10-point dose response curve by fitting the percent inhibition against compound concentration using the GraphPad Prism software. The inhibition constant Ki was subsequently calculated according Nikolovska-Coleska's equation (Anal. Biochem., 2004, 332, 261),
Where [I]50 is the concentration of the free inhibitor at 50% inhibition, [L]50 is the concentration of the free labeled ligand at 50% inhibition, [P]0 is the concentration of the free protein at 0% inhibition, and Kd is the dissociation constant of the protein-ligand complex.

T1 sequence (Q07820 whole entry): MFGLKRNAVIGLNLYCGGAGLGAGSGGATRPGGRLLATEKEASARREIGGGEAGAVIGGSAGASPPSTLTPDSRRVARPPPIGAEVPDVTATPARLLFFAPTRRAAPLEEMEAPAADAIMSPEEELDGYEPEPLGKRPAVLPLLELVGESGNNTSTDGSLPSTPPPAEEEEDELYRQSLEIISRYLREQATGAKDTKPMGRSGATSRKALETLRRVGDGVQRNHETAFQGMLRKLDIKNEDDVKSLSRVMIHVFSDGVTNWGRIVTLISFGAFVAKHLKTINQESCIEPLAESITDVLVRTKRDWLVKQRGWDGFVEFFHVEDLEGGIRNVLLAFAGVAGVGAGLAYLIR

| Molecule | Ki |
| --- | --- |
| COc1ccccc1-c1nccc(COc2ccccc2C[C@H](Nc2ncnn3cc(-c4ccc(F)cc4)c(-c4ccc(OCCN5CCN(C)CC5)c(Cl)c4C)c23)C(=O)O)n1 (single isomer, unassigned) [Example 12] | 990 nM |
| Cc1c(-c2c(-c3ccc(F)cc3)cn3ncnc(O[C@@H](Cc4ccccc4OCC4CC4)C(=O)O)c23)ccc(OCCN2CCN(C)CC2)c1Cl (atropisomer, axis not shown; (Sa)) [Example 3, (2S)-2-[(5Sa)-5-[3-Chloro-2-methyl-4-[2-(4-methylpiperazin-1-yl)ethoxy]phenyl]-6-(4-fluoro-phenyl)pyrrolo[2,1-f][1,2,4]triazin-4-yl]oxy-3-[2-(cyclopropylmethoxy)phenyl]propanoic acid] | > 12000 nM |
| Cc1c(-c2c(-c3ccc(F)cc3)cn3ncnc(O[C@@H](Cc4ccccc4OCC4CC4)C(=O)O)c23)ccc(OCCN2CCN(C)CC2)c1Cl (atropisomer, axis not shown) [Example 2, (2S)-2-[(5R^a)-5-[3-Chloro-2-methyl-4-[2-(4-methylpiperazin-1-yl)ethoxyl]phenyl]-6-(4-fluoro-phenyl)pyrrolo[2,1-f][1,2,4]triazin-4-yl]oxy-3-[2-(cyclopropylmethoxy)phenyl]propanoic acid] | > 12000 nM |
| COc1ccccc1-c1nccc(COc2ccccc2C[C@@H](Nc2ncnn3cc(-c4ccc(F)cc4)c(-c4ccc(OCCN5CCN(C)CC5)c(Cl)c4C)c23)C(=O)O)n1 (atropisomer, axis not shown; (Ra)) [Example 13, (2R)-2-{[(5Ra)-5-{3-Chloro-2-methyl-4-[2-(4-methylpiperazin-1-yl)ethoxy]phenyl}-6-(4-fluorophenyl)pyrrolo[2,1-f][1,2,4]triazin-4-yl]amino}-3-(2-{[2-(2-methoxyphenyl)pyrimidin-4-yl]methoxy}phenyl)propanoic acid] | 0.7 nM |
| Cc1c(-c2c(-c3ccc(F)cc3)cn3ncnc(O[C@H](Cc4ccccc4OCC4CC4)C(=O)O)c23)ccc(OCCN2CCN(C)CC2)c1Cl (atropisomer, axis not shown; (Sa)) [Example 1, (2R)-2-[(5Sa)-5-[3-Chloro-2-methyl-4-[2-(4-methylpiperazin-1-yl)ethoxy]phenyl]-6-(4-fluoro-phenyl)pyrrolo[2,1-f][1,2,4]triazin-4-yl]oxy-3-[2-(cyclopropylmethoxy)phenyl]propanoic acid] | 205 nM |
| Cc1c(-c2c(-c3ccc(F)cc3)cn3ncnc(N[C@H](Cc4ccccc4OCC4CC4)C(=O)O)c23)ccc(OCCN2CCN(C)CC2)c1Cl (single isomer, unassigned) [Example 7] | 77.7 nM |
| COc1ccccc1-c1nccc(COc2ccccc2C[C@H](Nc2ncnn3cc(-c4ccc(F)cc4)c(-c4ccc(OCCN5CCN(C)CC5)c(Cl)c4C)c23)C(=O)O)n1 (racemic) [Example 11] | 382 nM |
| Cc1c(-c2c(-c3ccc(F)cc3)cn3ncnc(N[C@H](Cc4ccccc4OCC4CC4)C(=O)O)c23)ccc(OCCN2CCN(C)CC2)c1Cl (single isomer, unassigned) [Example 5] | > 12000 nM |
| (2S)-2-{[(5Ra)-5-[3-Chloro-2-methyl-4-[2-(4-methylpiperazin-1-yl)ethoxy]phenyl]-6-(4-fluorophenyl)pyrrolo[2,1-f][1,2,4]triazin-4-yl]amino}-3-[2-(cyclopropylmethoxy)phenyl]propanoic acid [Example 6] | > 12000 nM |
| Cc1c(-c2c(-c3ccc(F)cc3)cn3ncnc(O[C@H](Cc4ccccc4OCC4CC4)C(=O)O)c23)ccc(OCCN2CCN(C)CC2)c1Cl (atropisomer, axis not shown; (Ra)) [Example 4, (2R)-2-[(5Ra)-5-[3-Chloro-2-methyl-4-[2-(4-methylpiperazin-1-yl)ethoxy]phenyl]-6-(4-fluoro-phenyl)pyrrolo[2,1-f][1,2,4]triazin-4-yl]oxy-3-[2-(cyclopropylmethoxy)phenyl]propanoic acid] | 11.3 nM |
| Cc1c(-c2c(-c3ccc(F)cc3)cn3ncnc(N[C@@H](Cc4ccccc4OCC4CC4)C(=O)O)c23)ccc(OCCN2CCN(C)CC2)c1Cl (atropisomer, axis not shown; (Sa)) [Example 8, (2S)-2-{[(5Sa)-5-[3-Chloro-2-methyl-4-[2-(4-methylpiperazin-1-yl)ethoxy]phenyl]-6-(4-fluorophenyl)pyrrolo[2,1-f][1,2,4]triazin-4-yl]amino}-3-[2-(cyclopropylmethoxy)phenyl]-propanoic acid] | > 12000 nM |

Source: patent publication US20220064170A1, “BICYCLIC HETEROCYCLIC DERIVATIVES AND THEIR USE AS PHARMACEUTICALS” (Prelude Therapeutics, Incorporated, priority 2018, published 2022)
